Experimental findings from paper PMC8652888, “Angiogenesis, Anti-Tumor, and Anti-Metastatic Activity of Novel α-Substituted Hetero-Aromatic Chalcone Hybrids as Inhibitors of Microtubule Polymerization” (Frontiers in Chemistry, 2021) are described below.

The subject of the test is microtubule network in MCF-7 cells. Kind of test: Immunofluorescent staining of microtubule network. In kind it is cell-based, human. To be noted: 0.4 μM, 24 h. Here is the method: Microtubule dynamics play an essential role in cancer cell growth. To examine whether compound 7m is able to disrupt microtubule dynamics, an immunofluorescent assay was carried out in MCF-7 cells.
Then the cells were washed with PBS three times. After permeabilization with 0.25% Triton X-100 for 5 min, the cells were washed with PBS three times and blocked in 5% bovine serum albumin (BSA) for 40 min. The cells were incubated with rabbit anti-α-tubulin primary antibody containing 5% BSA at room temperature for 5–6 h and washed with PBS three times. Cells were finally visualized under a fluorescence microscope.

Turning to “3-(benzofuran-6-yl)-2-methyl-1-(3,4,5-trimethoxyphenyl)prop-2-en-1-one [Compound 7m]”, the “effect on microtubule organization” value was “significant disruption of microtubule organization”.
